Structures are written as SMILES.

A word on the inhibition: it is the drop in the measured response relative to a control, in per cent.

The experiment concerns the target T1, human MAGL (His-hMAGL) (Homo sapiens, UniProt Q99685).
T1 construct: made in house; host or cells: Escherichia coli BL21(DE3)
T1 sequence (Q99685 1-303): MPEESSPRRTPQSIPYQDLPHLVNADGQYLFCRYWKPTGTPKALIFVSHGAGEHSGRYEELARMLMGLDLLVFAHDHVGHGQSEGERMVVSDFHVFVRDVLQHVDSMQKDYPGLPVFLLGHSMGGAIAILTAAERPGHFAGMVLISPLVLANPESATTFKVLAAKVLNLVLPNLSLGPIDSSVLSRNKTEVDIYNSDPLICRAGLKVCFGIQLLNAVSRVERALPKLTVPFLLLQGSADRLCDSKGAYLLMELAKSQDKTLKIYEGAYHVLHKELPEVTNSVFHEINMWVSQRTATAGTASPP
Description: Measurement of MAGL inhibitory activity by mass spectrometry. It is filed as biochemical. The note with it: MAGL inhibitory rate, test compound 10 μM, His-hMAGL, substrate 2-arachidonylglycerol, RapidFire-mass spectrometry. The method in brief: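 His-tagged human MAGL was reacted with 150 μM 2-arachidonylglycerol substrate (stock, added by 5 μL) for 10 min at room temperature, then stopped with formic acid. Arachidonic acid product was quantified by RapidFire–triple-quadrupole MS in negative SRM mode, corrected by arachidonic acid-d8, and converted to percent inhibition.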
With `O=C(c1nccs1)N1CCN(C2CC(=O)N(c3cccc(-c4csc5ncccc45)c3)C2)CC1` (centres unmarked) [Example 347, 4-(4-(1,3-thiazol-2-ylcarbonyl)piperazin-1-yl)-1-(3-(thieno[2,3-b]pyridin-3-yl)phenyl)pyrrolidin-2-one], the inhibition at 10 µM turned out to be 100%.
Turning to `O=C1Cc2c(-c3cccc(N4CC(N5CCN(C(=O)c6nccs6)CC5)CC4=O)c3)ccnc2N1` (centres unmarked) [Example 348, 4-(3-(2-oxo-4-(4-(1,3-thiazol-2-ylcarbonyl)piperazin-1-yl)pyrrolidin-1-yl)phenyl)-1,3-dihydro-2H-pyrrolo[2,3-b]pyridin-2-one], the inhibition at 10 µM is 99%.
Next, `O=C(c1nccs1)N1CCN(C2CC(=O)N(c3cccc(-c4nc(C(F)(F)F)cs4)c3)C2)CC1` (centres unmarked) [Example 349, 4-(4-(1,3-thiazol-2-ylcarbonyl)piperazin-1-yl)-1-(3-(4-(trifluoromethyl)-1,3-thiazol-2-yl)phenyl)pyrrolidin-2-one]: 98%; `O=C(c1nccs1)N1CCN(C2CC(=O)N(c3cc(F)cc(-c4ccccc4Cl)c3)C2)CC1` (centres unmarked) [Example 350, 1-(2′-chloro-5-fluorobiphenyl-3-yl)-4-(4-(1,3-thiazol-2-ylcarbonyl)piperazin-1-yl)pyrrolidin-2-one]: 104%; `COc1c(-c2cccc(N3CC(N4CCN(C(=O)c5nccs5)CC4)CC3=O)c2)ccc2c1NC(=O)C2` (centres unmarked) [Example 351, 7-Methoxy-6-(3-(2-oxo-4-(4-(1,3-thiazol-2-ylcarbonyl)piperazin-1-yl)pyrrolidin-1-yl)phenyl)-1,3-dihydro-2H-indol-2-one]: 100%.
As for `Cc1ccnc(C)c1-c1cccc(N2CC(N3CCN(C(=O)c4nccs4)CC3)CC2=O)c1` (centres unmarked) [Example 352, 1-(3-(2,4-dimethylpyridin-3-yl)phenyl)-4-(4-(1,3-thiazol-2-ylcarbonyl)piperazin-1-yl)pyrrolidin-2-one], the inhibition at 10 µM is 102%.
As to `O=C(c1nccs1)N1CCN(C2CC(=O)N(c3cc(-c4ccccc4F)c4[nH]ccc4c3)C2)CC1` (centres unmarked) [Example 353, 1-(7-(2-Fluorophenyl)-1H-indol-5-yl)-4-(4-(1,3-thiazol-2-ylcarbonyl)piperazin-1-yl)pyrrolidin-2-one], the inhibition at 10 µM was 101%.
For the compound `COc1ccccc1-c1cc(N2CC(N3CCN(C(=O)c4nccs4)CC3)CC2=O)cc2cc[nH]c12` (centres unmarked) [Example 354, 1-(7-(2-methoxyphenyl)-1H-indol-5-yl)-4-(4-(1,3-thiazol-2-ylcarbonyl)piperazin-1-yl)pyrrolidin-2-one], the inhibition at 10 µM came out at 101%.
For `COc1ccccc1-c1cc(N2CC(N3CCN(C(=O)c4nccs4)CC3)CC2=O)cc2cn[nH]c12` (centres unmarked) [Example 355, 1-(7-(2-methoxyphenyl)-1H-indazol-5-yl)-4-(4-(1,3-thiazol-2-ylcarbonyl)piperazin-1-yl)pyrrolidin-2-one], the inhibition at 10 µM was 98%.
`Cc1cc(Cl)ccc1-c1cccc(N2CC(N3CCN(C(=O)c4nccs4)CC3)CC2=O)c1` (centres unmarked) [Example 356, 1-(4′-chloro-2′-methylbiphenyl-3-yl)-4-(4-(1,3-thiazol-2-ylcarbonyl)piperazin-1-yl)pyrrolidin-2-one]: the inhibition at 10 µM stood at 98%.
Consider `Cc1cc(Cl)ccc1-c1cc(F)cc(N2CC(N3CCN(C(=O)c4nccs4)CC3)CC2=O)c1` (centres unmarked) [Example 357, 1-(4′-chloro-5-fluoro-2′-methylbiphenyl-3-yl)-4-(4-(1,3-thiazol-2-ylcarbonyl)piperazin-1-yl)pyrrolidin-2-one], for which the inhibition at 10 µM amounted to 101%.
As for `Cc1cnc(-n2ccc3cc(N4CC(N5CCN(C(=O)c6nccs6)CC5)CC4=O)ccc32)nc1` (centres unmarked) [Example 358, 1-(1-(5-methylpyrimidin-2-yl)-1H-indol-5-yl)-4-(4-(1,3-thiazol-2-ylcarbonyl)piperazin-1-yl)pyrrolidin-2-one], the inhibition at 10 µM came to 102%.
`C[C@@H]1CN(C(=O)c2nccs2)CCN1C1CC(=O)N(c2ccc3c(ccn3-c3ccc(F)cc3)c2)C1` (stereo partly drawn) [Example 359, 1-(1-(4-fluorophenyl)-1H-indol-5-yl)-4-((2R)-2-methyl-4-(1,3-thiazol-2-ylcarbonyl)piperazin-1-yl)pyrrolidin-2-one]: the inhibition at 10 µM is 96%.
On to `O=C1CC(N2CCN(c3ncccn3)CC2)CN1c1ccc2c(ccn2-c2ccnc(C(F)(F)F)c2)c1` (centres unmarked) [Example 361, 4-(4-(pyrimidin-2-yl)piperazin-1-yl)-1-(1-(2-(trifluoromethyl)pyridin-4-yl)-1H-indol-5-yl)pyrrolidin-2-one], for which the inhibition at 10 µM is 92%.
Take `Cc1nccnc1-c1cccc(N2CC(N3CCN(C(=O)c4nccs4)CC3)CC2=O)c1` (centres unmarked) [Example 362, 1-(3-(3-methylpyrazin-2-yl)phenyl)-4-(4-(1,3-thiazol-2-ylcarbonyl)piperazin-1-yl)pyrrolidin-2-one]: the inhibition at 10 µM is 92%.
The figure for `C[C@H]1CN(C2CC(=O)N(c3ccc4c(ccn4-c4ccc(F)cc4)c3)C2)CCN1C(=O)c1nccs1` (stereo partly drawn) [Example 363, 1-(1-(4-fluorophenyl)-1H-indol-5-yl)-4-((3S)-3-methyl-4-(1,3-thiazol-2-ylcarbonyl)piperazin-1-yl)pyrrolidin-2-one] is 96%.
Consider `O=C(c1nccs1)N1CCN(C2CC(=O)N(c3ccc4c(c3)CCN4c3ccnc(C(F)(F)F)c3)C2)CC1` (centres unmarked) [Example 365, 4-(4-(1,3-thiazol-2-ylcarbonyl)piperazin-1-yl)-1-(1-(2-(trifluoromethyl)pyridin-4-yl)-2,3-dihydro-1H-indol-5-yl)pyrrolidin-2-one], for which the inhibition at 10 µM turned out to be 98%.
As for `O=C(c1nccs1)N1CCN(C2CC(=O)N(c3sc4cc(F)ccc4c3Cl)C2)CC1` (centres unmarked) [Example 366, 1-(3-Chloro-6-fluoro-1-benzothiophen-2-yl)-4-(4-(1,3-thiazol-2-ylcarbonyl)piperazin-1-yl)pyrrolidin-2-one], the inhibition at 10 µM was determined as 100%.
Turning to `Cc1ccc(-c2cccc(N3CC(N4CCN(C(=O)c5nccs5)CC4)CC3=O)c2)c(C)n1` (centres unmarked) [Example 368, 1-(3-(2,6-dimethylpyridin-3-yl)phenyl)-4-(4-(1,3-thiazol-2-ylcarbonyl)piperazin-1-yl)pyrrolidin-2-one], the inhibition at 10 µM was 97%.
The figure for `O=C(c1nccs1)N1CCN(C2CC(=O)N(c3cccc(-c4cnccc4Cl)c3)C2)CC1` (centres unmarked) [Example 370, 1-(3-(4-chloropyridin-3-yl)phenyl)-4-(4-(1,3-thiazol-2-ylcarbonyl)piperazin-1-yl)pyrrolidin-2-one] is 101%.
The figure for `O=C(c1nccs1)N1CCN(C2CC(=O)N(c3cccc(-c4cnccc4C(F)(F)F)c3)C2)CC1` (centres unmarked) [Example 371, 4-(4-(1,3-thiazol-2-ylcarbonyl)piperazin-1-yl)-1-(3-(4-(trifluoromethyl)pyridin-3-yl)phenyl)pyrrolidin-2-one] is 104%; for `CC(C)(C)OC(=O)N1CCc2cc(N3CC(N4CCN(C(=O)c5nccs5)CC4)CC3=O)ccc21` (centres unmarked) [Example 372, tert-Butyl 5-(2-oxo-4-(4-(1,3-thiazol-2-ylcarbonyl)piperazin-1-yl)pyrrolidin-1-yl)indoline-1-carboxylate] it is 101%.
Next, `O=C(c1nccs1)N1CCN(C2CC(=O)N(c3ccc4c(c3)CCN4C(=O)C(F)(F)F)C2)CC1` (centres unmarked) [Example 373, 4-(4-(1,3-Thiazol-2-ylcarbonyl)piperazin-1-yl)-1-(1-(trifluoroacetyl)-2,3-dihydro-1H-indol-5-yl)pyrrolidin-2-one]: 96%; `O=C(c1nccs1)N1CCN(C2CC(=O)N(c3ccc4c(c3)CCN4)C2)CC1` (centres unmarked) [Example 374, 1-(2,3-Dihydro-1H-indol-5-yl)-4-(4-(1,3-thiazol-2-ylcarbonyl)piperazin-1-yl)pyrrolidin-2-one]: 81%; `O=C(c1nccs1)N1CCN(C2CC(=O)N(c3ccc4c(c3)CCN4C3CC3)C2)CC1` (centres unmarked) [Example 375, 1-(1-Cyclopropyl-2,3-dihydro-1H-indol-5-yl)-4-(4-(1,3-thiazol-2-ylcarbonyl)piperazin-1-yl)pyrrolidin-2-one]: 95%.
As to `O=C1CC(N2CCN(c3ncccn3)CC2)CN1c1ccc2c(c1)CCN2c1ccnc(C(F)(F)F)c1` (centres unmarked) [Example 377, 4-(4-(pyrimidin-2-yl)piperazin-1-yl)-1-(1-(2-(trifluoromethyl)pyridin-4-yl)-2,3-dihydro-1H-indol-5-yl)pyrrolidin-2-one], the inhibition at 10 µM is 97%.
Turning to `O=C1CC(N2CCN(c3ncccn3)CC2)CN1c1ccc2c(c1)CCN2c1ncc(C(F)(F)F)cn1` (centres unmarked) [Example 378, 4-(4-(Pyrimidin-2-yl)piperazin-1-yl)-1-(1-(5-(trifluoromethyl)pyrimidin-2-yl)-2,3-dihydro-1H-indol-5-yl)pyrrolidin-2-one], the inhibition at 10 µM was 95%.
Next, `CC(C)(C)CC(=O)N1CCc2cc(N3CC(N4CCN(C(=O)c5nccs5)CC4)CC3=O)ccc21` (centres unmarked) [Example 382, 1-(1-(3,3-Dimethylbutanoyl)-2,3-dihydro-1H-indol-5-yl)-4-(4-(1,3-thiazol-2-ylcarbonyl)piperazin-1-yl)pyrrolidin-2-one]: 99%; `O=C(c1nccs1)N1CCN(C2CC(=O)N(c3ccc4c(c3)CCN4c3ccc(C(F)(F)F)cn3)C2)CC1` (centres unmarked) [Example 383, 4-(4-(1,3-thiazol-2-ylcarbonyl)piperazin-1-yl)-1-(1-(5-(trifluoromethyl)pyridin-2-yl)-2,3-dihydro-1H-indol-5-yl)pyrrolidin-2-one]: 98%.
